Data set [1] deals with GST. Put plainly: GST activity towards CDNB in melanoma cell supernatants. In kind it is biochemical. The settings on record: B16-F0, Hs600T, A2058 supernatants; 1 mM GSH and CDNB. As to the method: GST activity towards 1-chloro 2,4-dinitro benzene (CDNB) and its inhibition by COH-SR4 was performed in 28000×g crude supernatant prepared from B16-F0, Hs600T and A2058 cells. Human liver purified GST was used as a control (inset). The inhibitory effect of COH-SR4 on GST was studied at a fixed concentration of GSH and CDNB (1 mM each) and varying concentrations of inhibitor. The enzymes were pre-incubated with the inhibitor for 5 min at 37° C. prior to the addition of the substrates. […] The ability of COH-SR4 to inhibit GST activity in melanomas represents a potential mechanism that contributes to decreased survival of melanoma cells following COH-SR4 treatment (FIG. 68A).

For data set [2], the system named is AMPK, ACC. Put plainly: AMP:ATP ratio and AMPK/ACC phosphorylation in liver of db/db mice. In kind it is in vivo, mouse. The settings on record: 5 weeks. On the procedure:
ATP production from cells treated with test compounds were measured using the Luminescent ATP Detection Assay Kit. AMP, ATP and ADP were measured by UV-HPLC.
All animal experiments were carried out in accordance with the protocols approved by the Institutional Animal Care and Use Committee of the City of Hope. Nine-week old male C57BL/6J mice fed on high fat diet (HFD, 60% fat) and 10-week old db/db mice were given COH-SR4 (5 mg/kg B.W.) or vehicle (corn oil) via oral gavage every other day for six and five weeks, respectively. Oral glucose tolerance test was performed on animals after an overnight fast. All other metabolic parameters were measured at the end of study. Liver samples were stained with H&E and Oil Red O.
Total intracellular ATP production in cells treated with either 5 μM COH-SR4 or 5 μM FCCP was measured by bioluminescence assay and expressed as percentage of time-matched vehicle (DMSO) control (FIG. 84A). Intracellular AMP: ATP ratios increased in HepG2 liver carcinoma cells following 1 h treatment with either 5 μM COH-SR4 or 5 μM FCCP (FIG. 84B) and in liver of db/db mice treated with COH-SR4 (5 mg/kg B.W.) for 5 weeks (FIG. 84C). All data represented are mean±SEM, *P<0.05.
Treatment with the AMPK inhibitor Compound C (20 μM) diminished AMPK activation and ACC phosphorylation by either uncoupler COH-SR4 or FCCP (FIG. 84F).

Data set [3] deals with human melanoma cells (SK-MEL28, A2058, A101D). Put plainly: Oxygen consumption rate in melanoma cells, Seahorse. In kind it is cell-based. The following applies: 1-10 μM, monitored 2 h. On the procedure:
Oxygen consumption rate (OCR), a measure of OxPhos, and extracellular acidification rate (ECAR), a measure of lactate production by glycolysis, were measured using a Seahorse Xf^e96 Flux Analyzers (Seahorse Biosciences, North Billerica, Mass.). Cells were seeded in DMEM media in Seahorse 96-well tissue culture plates at a density of 5×10^3 cells/well and allowed to adhere for 24 h. Prior to the assay, the media was changed to unbuffered DMEM containing 25 mM glucose, 1 mM pyruvate and 1 mM glutamine, with 0.2% fatty acid/endotoxin-free BSA (w/v) (pH 7.4) and the cells were equilibrated for 30 min at 37° C. Test compounds were injected during the assay and OCR and ECAR were measured using 2-3 min measurement periods. […] OCR was measured throughout the different injections of the stressors and test compounds (indicated by arrows in the figures).
The importance of mitochondria as oxygen sensors as well as producers of ATP and ROS has recently become a focal point of cancer research. […] OCR was continuously monitored for 2 h. Mitochondria recoupler 6-KCH (200 μM) was added to the assay system prior to injection of COH-SR4 (5 μM) as shown by arrows and OCR of A101D cells were monitored (FIG. 37B). […]

In data set [4] the test system is Glioma Cells PBT-017 and/or U251. Put plainly: Combination index COH-SR4 and 5-FU, cell line not stated. The settings on record: COH-SR4 <0.5 μM + 5-FU <125 μM. It is filed as cell-based. On the procedure:
Effects of combination of COH-SR4 and a chemotherapy drug such as TMZ, SN38, CPT-11, and 5-FU were studied by combination index (CI) theorem and plot using the method described in Chou (“Experimental Design, and Computerized Simulation of Synergism and Antagonism in Drug Combination Studies,” Pharmacological Reviews, Vol. 58, No. 3), which is incorporated herein by reference in its entirety.
COH-SR4 and a chemotherapy drug (TMZ, SN38, CPT-11, or 5-FU) were dissolved in DMSO individually, and then diluted to the appropriate concentration in the same cell culture media before applying to cells of each cell line. After 4 days, the amount of ATP present in the cell lysates were assessed using Progema's CellGlo kit. The CI of each combination of COH-SR4 and the chemotherapy drug was calculated and plotted against the concentration of COH-SR4 for each concentration of the chemotherapy drug used.

The results in this text go back to patent US9808434B2, “Compound for treating cancer and diabetes” (CITY OF HOPE, priority 2011, dated 2017).

Turning to `O=C(Nc1cc(Cl)cc(Cl)c1)Nc1cc(Cl)cc(Cl)c1` [COH-SR4, 1,3-bis(3,5-dichlorophenyl) urea], the “total GST activity towards CDNB” value in data set [1] is “inhibited the total GST activity to a significant extent”. Besides, in data set [2] (5 mg/kg B.W.), the “intracellular AMP:ATP ratios in liver” value is recorded as “increased”. The “AMPK and ACC phosphorylations in liver” value in data set [2] was “Increased AMPK and ACC phosphorylations”. The “oxygen consumption rate (OCR)” value in data set [3] was “increased OCR in a time-dependent and dose-dependent manner”. Also, the “combination effect (CI) with 5-FU” value in data set [4] was “synergism”.
